Test results published in patent US9114171B2, “Racecadotril liquid compositions” (McNeil-PPC, Inc., priority 2012, dated 2015).

Experiment: Stability of Racecadotril in Buffer
Assay type: physicochemical
Experimental: For comparative purposes, the stability of racecadotril was analyzed when solubilized in pH 4.5 Acetate buffer and pH 4.5 Citrate buffer (Table 4). Test Methods Sample Preparation: • 1. Pipet 1 mL of Racecadotril solution into a 100 mL volumetric flask (V.F.) • 2. Dilute to volume with the same buffer used in the solution preparation. • 3. Further dilute the sample solution to about 0.1 mg/mL if necessary. […] Parameters may be modified to optimize chromatography. • The assay of Racecadotril is determined by using the external standard injected. The degradation products levels are determined by % peak area relative to the Racecadotril peak. Chromatographic Conditions (European Pharmacopoeia Racecadotril Method): […]

solubility in buffer versus water: more soluble in buffer than in water | stability in buffer versus water (40° C. and 4 weeks): more stable in a buffer than in water
SMILES: CC(=O)SCC(Cc1ccccc1)C(=O)NCC(=O)OCc1ccccc1 (racemic) [Racecadotril]
